Results: patent publication US20090099192A1, “Substituted 1H-pyrrole-2,5-diones” (Bayer CropScience AG, priority 2004, published 2009)

Experiments:
[1] = system: larvae of the mustard beetle (Phaedon cochleariae); test: Phaedon test (spray treatment); assay type: in vivo; details: for Kill rate in % after 7 d: 500 g/ha, spray, Brassica pekinensis disks
Description: (§1) [table] To produce a suitable preparation of active compound, 1 part by weight of active compound is mixed with the stated amounts of solvents and emulsifier, and the concentrate is diluted with emulsifier-containing water to the desired concentration. Disks of Chinese cabbage (Brassica pekinensis) are sprayed with an active compound preparation of the desired concentration and, after drying, populated with larvae of the mustard beetle (Phaedon cochleariae). After the desired period of time, the effect in % is determined. 100% means that all beetle larvae have been killed; 0% means that none of the beetle larvae have been killed.

[2] = logP determination by HPLC on reversed-phase column (C 18), EEC Directive 79/831 Annex V.A8; assay type: physicochemical; details: reversed-phase C 18, 43° C., acid range (0.1% aqueous phosphoric acid, acetonitrile), marked a)
Description: a) The logP values given in table 1 were determined in accordance with EEC Directive 79/831 Annex V.A8 by HPLC (High Performance Liquid Chromatography) on a reversed-phase column (C 18). Temperature: 43° C. (a) Mobile phases for the determination in the acid range: 0.1% aqueous phosphoric acid, acetonitrile; linear gradient from 10% acetonitrile to 90% acetonitrile—corresponding measurement results are marked a) in table 1. Calibration was carried out using unbranched alkan-2-ones (having 3 to 16 carbon atoms) with known logP values (determination of the logP values by the retention times using linear interpolation between two successive alkanones).

[3] = system: caterpillars of the army worm (Spodoptera frugiperda); test: Spodoptera frugiperda test (corn leaf disks sprayed); assay type: in vivo; details: for Kill rate in % after 7 d: 500 g/ha, spray, Zea mays leaf disks
Description: as §1, with “corn leaves (Zea mays)” for “Chinese cabbage (Brassica pekinensis)”, “caterpillars” for “larvae”, “army worm (Spodoptera frugiperda).” for “mustard beetle (Phaedon cochleariae).”, “caterpillars” for “beetle larvae”

[4] = system: larvae of the mustard beetle (Phaedon cochleariae); test: Phaedon larvae test (cabbage leaves dipped); assay type: in vivo
Description: [table] To produce a suitable preparation of active compound, 1 part by weight of active compound is mixed with the stated amount of solvent and the stated amount of emulsifier, and the concentrate is diluted with water to the desired concentration. Cabbage leaves (Brassica oleracea) are treated by being dipped into the active compound preparation of the desired concentration and populated with larvae of the mustard beetle (Phaedon cochleariae) while the leaves are still moist. After the desired period of time, the kill in % is determined. 100% means that all beetle larvae have been killed; 0% means that none of the beetle larvae have been killed.

Row | Compound | logP [2] | other results
1 | O=C1C(O)=C(c2ccccc2OC(F)(F)F)C(=O)N1C1CCCC(C(F)(F)F)C1 (stereo not shown) [Example 190] | logP = 3.77^a) | activity in the Phaedon test (spray treatment) [1]: good activity; Kill rate in % after 7 d [1]: 100%; activity in the Spodoptera frugiperda test (spray) [3]: good activity; Kill rate in % after 7 d [3]: 83%
2 | O=C1C(O)=C(c2c(F)cccc2F)C(=O)N1C1CCC(C(F)(F)F)CC1 (stereo not shown) [Example 209] |  | activity in the Phaedon larvae test [4]: good activity; Kill rate in % after 7 d ([4]; 500 ppm, leaf dip, Brassica oleracea): 100%
3 | O=C1C(O)=C(c2cc(F)ccc2Br)C(=O)N1C1CCCC(C(F)(F)F)C1 (stereo not shown) [Example 198] | logP = 3.46^a) | activity in the Phaedon test (spray treatment) [1]: good activity; Kill rate in % after 7 d [1]: 100%
4 | CC1(C)CC(N2C(=O)C(O)=C(c3ccccc3Cl)C2=O)CC(C)(C)C1 [Example 200] |  | activity in the Phaedon test (spray treatment) [1]: good activity; Kill rate in % after 7 d [1]: 100%
5 | CC1CCCC(N2C(=O)C(O)=C(c3ccccc3Br)C2=O)C1 (stereo not shown) [Example 197] | logP = 3.61^a) | activity in the Phaedon test (spray treatment) [1]: good activity; Kill rate in % after 7 d [1]: 100%; activity in the Spodoptera frugiperda test (spray) [3]: good activity; Kill rate in % after 7 d [3]: 100%
6 | Cc1ccc(S(=O)(=O)OC2=C(c3ccccc3Cl)C(=O)N(C3CCCC(C(F)(F)F)C3)C2=O)cc1 (stereo not shown) [Example 208] | logP = 4.89^a) | activity in the Phaedon test (spray treatment) [1]: good activity; Kill rate in % after 7 d [1]: 100%
7 | CC1CC(N2C(=O)C(O)=C(c3ccccc3Cl)C2=O)CC(C)(C)C1 (stereo not shown) [Example 199] | logP = 4.18^a) | activity in the Phaedon test (spray treatment) [1]: good activity; Kill rate in % after 7 d [1]: 100%
8 | O=C1C(O)=C(c2ccc(Cl)cc2Br)C(=O)N1C1CCCC(C(F)(F)F)C1 (stereo not shown) [Example 186] | logP = 2.53^a) | activity in the Phaedon test (spray treatment) [1]: good activity; Kill rate in % after 7 d [1]: 100%; activity in the Spodoptera frugiperda test (spray) [3]: good activity; Kill rate in % after 7 d [3]: 100%
9 | Cc1ccc(-c2ccc(Cl)cc2)cc1C1=C(O)C(=O)N(C(C)(C)c2cccc(Cl)c2)C1=O [Example 143] | logP = 4.99^a) | 
10 | O=C1C(O)=C(c2ccc(OC(F)(F)F)cc2)C(=O)N1Cc1ccccc1F [Example 97] | logP = 3.83^a) | 
11 | COC(=O)C1(N2C(=O)C(O)=C(c3ccccc3Cl)C2=O)CCCCC1 [Example 165] | logP = 3.10^a) | 
12 | O=C1C(O)=C(c2ccccc2F)C(=O)N1Cc1cc(Cl)cc(Cl)c1 [Example 110] | logP = 3.56^a) | 
13 | O=C1C(O)=C(c2ccc(Br)cc2Cl)C(=O)N1C1CCCC(C(F)(F)F)C1 (stereo not shown) [Example 187] | logP = 2.47^a) | activity in the Phaedon test (spray treatment) [1]: good activity; Kill rate in % after 7 d [1]: 100%
14 | CCOC(=O)C1(N2C(=O)C(OC(=O)C(C)(C)C)=C(c3ccccc3Cl)C2=O)CCCCC1 [Example 169] | logP = 5.50^a) | 
15 | O=C1C(O)=C(c2ccc(Cl)cc2)C(=O)N1Cc1ccccc1F [Example 99] | logP = 3.56^a) | 
16 | O=C1C(O)=C(c2ccccc2Cl)C(=O)N1C1CCCCC1 [Example 22] | logP = 3.17^a) | 
17 | O=C1C(O)=C(c2ccccc2Cl)C(=O)N1c1ccc(OC(F)(F)F)cc1 [Example 52] | logP = 3.27^a) | 
18 | O=C1C(O)=C(c2c(F)cccc2F)C(=O)N1CCC(F)(F)F [Example 44] | logP = 2.14^a) | 
19 | O=C1C(O)=C(c2ccc(Cl)cc2)C(=O)N1CC(F)(F)F [Example 41] | logP = 2.82^a) | 
20 | Cc1ccc(-c2ccc(Cl)cc2)cc1C1=C(O)C(=O)N(c2ccc(Cl)cc2Cl)C1=O [Example 126] | logP = 4.51^a) | 
21 | O=C1C(O)=C(c2cc(Cl)cc(Cl)c2)C(=O)N1Cc1c(F)cccc1F [Example 109] | logP = 3.20^a) | 
22 | O=C1C(O)=C(c2ccccc2Cl)C(=O)N1C1CCOCC1 [Example 154] | logP = 1.94^a) | 
23 | O=C1C(OCc2ccc(Cl)cc2)=C(c2ccccc2Cl)C(=O)N1C1CCCC(C(F)(F)F)C1 (stereo not shown) [Example 203] |  | activity in the Phaedon test (spray treatment) [1]: good activity; Kill rate in % after 7 d [1]: 100%; activity in the Spodoptera frugiperda test (spray) [3]: good activity; Kill rate in % after 7 d [3]: 100%
24 | O=C1C(O)=C(c2cccc(OC(F)(F)F)c2)C(=O)N1Cc1cc(Cl)cc(Cl)c1 [Example 117] | logP = 4.45^a) | 
25 | O=C1C(O)=C(c2ccc(Cl)cc2)C(=O)N1c1ccc(OC(F)(F)F)cc1 [Example 55] | logP = 3.83^a) | 
26 | Cc1cc(C)c(C2=C(O)C(=O)N(Cc3ccccc3F)C2=O)c(C)c1 [Example 93] | logP = 3.51^a) | 

Row | Compound | logP [2] | other results
27 | COc1ccccc1C1=C(O)C(=O)N(C2CCCC(C(F)(F)F)C2)C1=O (stereo not shown) [Example 189] | logP = 3.32^a) | activity in the Phaedon test (spray treatment) [1]: good activity; Kill rate in % after 7 d [1]: 83%
28 | O=C1C(O)=C(c2ccc(C(F)(F)F)cc2)C(=O)N1c1ccc(Cl)cc1 [Example 64] | logP = 3.35^a) | 
29 | CC1CCCC(C#N)(N2C(=O)C(OC(=O)C(C)(C)C)=C(c3ccccc3Cl)C2=O)C1 (stereo not shown) [Example 171] | logP = 5.01^a) | 
30 | Cc1ccc(-c2ccc(Cl)cc2)cc1C1=C(O)C(=O)N(CC(C)(C)C)C1=O [Example 138] | logP = 4.61^a) | 
31 | O=C1C(O)=C(c2ccc(Cl)cc2)C(=O)N1c1cc(Cl)cc(Cl)c1 [Example 78] | logP = 3.94^a) | 
32 | N#Cc1ccc(C2=C(O)C(=O)N(c3ccc(C(F)(F)F)cc3F)C2=O)cc1 [Example 144] | logP = 6.09^a) | 
33 | Cc1ccc(-c2ccc(Cl)cc2)cc1C1=C(O)C(=O)N(C(C)(C)C)C1=O [Example 137] | logP = 4.51^a) | 
34 | O=C1C(O)=C(c2cc(Cl)cc(Cl)c2)C(=O)N1c1ccc(OC(F)(F)F)cc1 [Example 57] | logP = 3.56^a) | 
35 | Cc1ccc(-c2ccc(Cl)cc2)cc1C1=C(O)C(=O)N(C(C)c2cccc(Cl)c2)C1=O (racemic) [Example 141] | logP = 4.84^a) | 
36 | O=C1C(O)=C(c2cc(Cl)cc(Cl)c2)C(=O)N1CCC(F)(F)F [Example 49] | logP = 2.94^a) | 
37 | O=C1C(O)=C(c2cccc(C(F)(F)F)c2)C(=O)N1c1ccc(Cl)cc1 [Example 61] | logP = 3.45^a) | 
38 | CCOC(=O)C1CCCC(N2C(=O)C(O)=C(c3ccccc3Cl)C2=O)C1 (stereo not shown) [Example 150] | logP = 3.01^a) | 
39 | O=C1C(O)=C(c2ccccc2F)C(=O)N1Cc1ccccc1F [Example 95] | logP = 2.82^a) | 
40 | O=C1C(O)=C(c2cccc(OC(F)(F)F)c2)C(=O)N1Cc1ccccc1F [Example 101] | logP = 3.64^a) | 
41 | CCOc1cccc(F)c1CN1C(=O)C(O)=C(c2c(C)cc(C)cc2C)C1=O [Example 181] | logP = 3.68^a) | 
42 | CC1CC(N2C(=O)C(O)=C(c3ccccc3Cl)C2=O)CC(C)(C)C1 (stereo not shown) [Example 159] | logP = 4.18^a) | 
43 | CCOC(=O)C1CCCCC1N1C(=O)C(O)=C(c2c(C)cc(-c3ccc(Cl)cc3)cc2C)C1=O (stereo not shown) [Example 174] | logP = 4.87^a) | 
44 | N#Cc1ccc(C2=C(O)C(=O)N(CC(F)(F)F)C2=O)cc1 [Example 40] | logP = 1.94^a) | 
45 | N#CC1(N2C(=O)C(O)=C(c3ccccc3Cl)C2=O)CCCCC1 [Example 157] | logP = 2.72^a) | 
46 | Cc1cc(C)c(C2=C(OC(=O)C(C)(C)C(C)C)C(=O)N(C(C)C)C2=O)c(C)c1 [Example 20] | logP = 5.87^a) | 
47 | O=C1C(O)=C(c2cc(Cl)cc(Cl)c2)C(=O)N1Cc1ccccc1F [Example 102] | logP = 3.48^a) | 
48 | O=C1C(OCc2ccccc2)=C(c2ccccc2Cl)C(=O)N1C1CCCC(C(F)(F)F)C1 (stereo not shown) [Example 204] | logP = 5.01^a) | activity in the Phaedon test (spray treatment) [1]: good activity; Kill rate in % after 7 d [1]: 100%; activity in the Spodoptera frugiperda test (spray) [3]: good activity; Kill rate in % after 7 d [3]: 100%
49 | O=C1C(O)=C(c2ccccc2[N+](=O)[O-])C(=O)N1C1CCCC(C(F)(F)F)C1 (stereo not shown) [Example 194] | logP = 3.01^a) | activity in the Phaedon test (spray treatment) [1]: good activity; Kill rate in % after 7 d [1]: 100%
50 | Cc1ccccc1C1=C(O)C(=O)N(C2CCCC(C(F)(F)F)C2)C1=O (stereo not shown) [Example 188] | logP = 3.11^a) | activity in the Phaedon test (spray treatment) [1]: good activity; Kill rate in % after 7 d [1]: 100%; activity in the Spodoptera frugiperda test (spray) [3]: good activity; Kill rate in % after 7 d [3]: 100%
51 | CCOC(=O)C1(N2C(=O)C(O)=C(c3ccccc3Cl)C2=O)CCCC(C)C1 (stereo not shown) [Example 168] | logP = 3.78^a) | 
